What is called IC50 is the concentration at which inhibition is half-maximal.

The source of these data is ChEMBL document CHEMBL5053544, “Microbial transformation of pentacyclic triterpenes for anti-inflammatory agents on the HMGB1 stimulated RAW 264.7 cells by Streptomyces olivaceus CICC 23628” (Bioorg Med Chem, 2021).

The experiment has as its system RAW264.7. The experiment in a line: Antiinflammatory activity against mouse RAW264.7 cells assessed as inhibition of HMGB1-induced NO production pretreated with compounds for 15 mins followed by HMGB1 stimulation measured after 24 hrs by Griess reagent based assay. Format: functional, cell-based. For orientation: Nitrite, measured by Griess reagent, commonly stands in for NO production.

Regarding `CC(O)(CO)[C@@H]1CC[C@]2(C)[C@H](CC=C3[C@@H]4C[C@@](C)(CO)C[C@@H](O)[C@]4(C)CC[C@]32C)[C@@]1(C)CCC(=O)O` (some centres not stated), the IC50 was > 100 µM.
On to `C=C(C)[C@@H]1CC[C@]2(C(=O)O)CC[C@]3(C)[C@H](CC[C@@H]4[C@@](C)(CCC(=O)OC)[C@H](C(C)(C)O)CC[C@]43C)[C@@H]12`, for which the IC50 is > 100 µM.
Consider `CC1(C)C[C@H]2C3=CC[C@@H]4[C@@](C)(CCC(=O)O)[C@H]([C@](C)(O)CO)CC[C@@]4(C)[C@]3(C)CC[C@@]2(C)[C@H](O)[C@@H]1O`, for which the IC50 is > 100 µM.
For `C=C(CO)[C@@H]1CC[C@]2(C(=O)O)CC[C@]3(C)[C@H](CC[C@@H]4[C@@](C)(CCC(=O)O)[C@H](C(C)(C)O)CC[C@]43C)[C@@H]12`, the concentration for half-maximal inhibition (IC50) was > 100 µM.
For `COC(=O)CC[C@@]1(C)[C@H]([C@](C)(O)CO)CC[C@]2(C)[C@@H]1CC=C1[C@@H]3C[C@@](C)(CO)C[C@@H](O)[C@]3(C)CC[C@]12C`, the IC50 was > 100 µM.
The same measure for `C=C(C)[C@@H]1CC[C@]2(C(=O)O)CC[C@]3(C)[C@H](CC[C@@H]4[C@@](C)(CCC(=O)O)[C@H](C(C)(C)O)CC[C@]43C)[C@@H]12`: > 100 µM.
On to `CC1(C)C[C@H]2C3=CC[C@@H]4[C@@](C)(CCC(=O)O)[C@H]([C@](C)(O)CO)CC[C@@]4(C)[C@]3(C)C[C@@H](O)[C@@]2(CO)[C@@H](O)[C@@H]1O`, for which the IC50 was > 100 µM.
For `C[C@@]1(CO)C[C@H]2C3=CC[C@@H]4[C@@](C)(CCC(=O)O)[C@H]([C@](C)(O)CO)CC[C@@]4(C)[C@]3(C)CC[C@@]2(C)[C@H](O)[C@@H]1O`, the half-inhibitory concentration (IC50) was > 100 µM.
As to `CC1(C)C[C@H]2C3=CC[C@@H]4[C@@](C)(CCC(=O)O)[C@H]([C@](C)(O)CO)CC[C@@]4(C)[C@]3(C)CC[C@@]2(C)[C@H](O)[C@H]1O`, the IC50 stood at 15.9 µM.
In the case of `CC1(C)C[C@@H](O)[C@]2(C)CC[C@]3(C)C(=CC[C@@H]4[C@@](C)(CCC(=O)O)[C@H]([C@](C)(O)CO)CC[C@]43C)[C@@H]2C1`, the IC50 was > 100 µM.
For `C=C(CO)[C@@H]1CC[C@]2(C(=O)O)CC[C@]3(C)[C@H](CC[C@@H]4[C@@](C)(CCC(=O)OC)[C@H](C(C)(C)O)CC[C@]43C)[C@@H]12`, the half-inhibitory concentration (IC50) is > 100 µM.
In the case of `C[C@@]1(CO)C[C@@H](O)[C@]2(C)CC[C@]3(C)C(=CC[C@@H]4[C@@](C)(CCC(=O)O)[C@H]([C@](C)(O)CO)CC[C@]43C)[C@@H]2C1`, the IC50 was > 100 µM.
As to `C[C@]1(CO)C[C@H]2C3=CC[C@@H]4[C@@](C)(CCC(=O)O)[C@H]([C@](C)(O)CO)CC[C@@]4(C)[C@]3(C)CC[C@@]2(C)[C@H](O)[C@@H]1O`, the IC50 stood at 36 µM.
Turning to `C=C(C)[C@@H]1CC[C@]2(C(=O)O)CC[C@]3(C)[C@H](CC[C@@H]4[C@@]5(C)CC[C@H](O)C(C)(C)[C@@H]5CC[C@]43C)[C@@H]12` [BETULINIC ACID], the IC50 is > 100 µM.
`CC1(C)[C@@H](OC(=O)CCC(=O)O)CC[C@]2(C)[C@H]3C(=O)C=C4[C@@H]5C[C@@](C)(C(=O)O)CC[C@]5(C)CC[C@@]4(C)[C@]3(C)CC[C@@H]12` [CARBENOXOLONE]: the IC50 stood at 11.4 µM.
In the case of `CC1(C)C[C@H]2C3=CC[C@@H]4[C@@]5(C)CC[C@H](O)[C@](C)(CO)[C@@H]5CC[C@@]4(C)[C@]3(C)CC[C@@]2(C)[C@H](O)[C@@H]1O` [SOYASAPOGENOL A], the IC50 was > 100 µM.
With `CC1(C)C[C@@H](O)[C@]2(C)CC[C@]3(C)C(=CC[C@@H]4[C@@]5(C)CC[C@H](O)[C@](C)(CO)[C@@H]5CC[C@]43C)[C@@H]2C1` [SOYASAPOGENOL B], the half-maximal inhibitory concentration (IC50) is > 100 µM.
